Test results as given in publication PMC11271627, “Molecular dynamics-guided optimization of BGM0504 enhances dual-target agonism for combating diabetes and obesity” (Scientific Reports, 2024).

Experiments:
[1] = molecular target: T1, Human Serum Albumin (HSA) protein (Homo sapiens, UniProt P02768); experiment: biochemical; type: binding
T1 construct: purified Human ALB (25–609)-His was immobilized
Text: The buffer used was PBST (PBS with 0.02% Tween 20).

in vivo [2] = experiment: in vivo; parameters: species or system SD rats; conditions: rat; for AUC(0-inf) / AUC(0-t): SD
Procedure: In this experiment, a total of 24 rats (12 of each sex) were provided by Beijing Vitong Lever Experimental Animal Technology Co., Ltd. Each animal was identified using a tail mark and had its health status confirmed by Suzhou WuXi AppTec’s veterinary team before use. The animal room was monitored for temperature and humidity, with data recorded daily to ensure that the relative humidity was maintained at 40%–70% and the temperature was between 20–26°C. The lighting adopted a 12-hour alternating light and dark mode. Regular growth feed was provided daily, and animals had ready access to water. […] Post-administration, the condition of the animals was observed and documented before and after each blood collection point. The ensemble of 24 SD rats was divided into four groups, with three specimens of each gender in each group. Animals in group 1 received a single intravenous bolus of 0.2 mg/kg BGM0504, and groups 2, 3, and 4 received a single subcutaneous injection of 0.3, 1.5, and 7.5 mg/kg BGM0504 in 20 mM citrate buffered solution (pH=7.0±0.2), respectively. Blood samples were collected for pharmacokinetic analysis at specific time points (0.5, 1, 2, 4, 8, 12, 24, 48, 72, 96, and 120 hours) before and after dosing. At the same time, blood glucose levels were measured before and at 1, 4, 8, 12, and 24 hours after dosing. The collected blood samples were transferred to labeled commercial sample tubes containing K2-EDTA, centrifuged, and plasma was retrieved; some were used for analysis, and the other part was reserved as a backup. Plasma was transferred to pre-cooled centrifuge tubes, snap-frozen in dry ice, and stored in an ultra-low temperature freezer at -60°C or lower until transported to the Drug Evaluation Department of WuXi AppTec Shanghai Drug Development Co., Ltd. for analysis.

in vivo [3] = experiment: in vivo; parameters: species or system cynomolgus monkeys; conditions: cynomolgus monkey
Procedure: In this trial, 24 cynomolgus monkeys (12 of each sex) were provided by Hainan Jingang Biotechnology Co., Ltd. Each animal was identified using a unique code on the chest and cage box, and its health status was confirmed by the veterinary team of WuXi AppTec Suzhou Drug Development Co., Ltd. before use. Temperature and humidity were monitored in the animal room, with data recorded daily to ensure that the relative humidity was maintained at 40%–70% and the temperature stayed between 18–26°C. The ventilation was set to 10–20 exchanges per hour, and a 12-hour alternating light-dark cycle was adopted. Regular growth feed was provided daily, and the animals had constant access to water. Additionally, the test animals were provided with fruit daily to meet their nutritional needs. The 24 cynomolgus monkeys were randomly divided into four groups, with three monkeys of each sex per group. Animals in group 1 received a single intravenous bolus of 0.1 mg/kg BGM0504, while groups 2, 3, and 4 received a single subcutaneous injection of 0.2, 1, and 5 mg/kg BGM0504 in 20 mM citrate buffer solution (pH=7.0±0.2), respectively. Blood samples for pharmacokinetic (PK) analysis were collected at specific time points (0.5, 1, 4, 6, 8, 12, 24, 48, 72, 96, 120, 168, 240, and 312 hours) before and after dosing. At the same time, blood glucose levels were measured at 0.5, 4, 24, 48, and 72 hours after dosing. The collected blood samples were transferred to labeled commercial tubes containing K2-EDTA (0.85–1.15 mg), gently inverted several times to ensure mixing, and immediately placed on wet ice. Within 60 minutes of blood collection, the samples were centrifuged for 10 minutes at 3200×g at 2°–8°C. Plasma was divided into two aliquots (one for analysis and one for later use), transferred to labeled polypropylene tubes, immediately snap-frozen vertically in dry ice, and stored in an ultra-low temperature freezer at -60°C or lower until transported to the Drug Evaluation Department of WuXi AppTec Shanghai Drug Development Co., Ltd. for LC-MS/MS analysis.

[4] = both sexes, Sprague-Dawley, iv, 0.2 mg/kg
[5] = both sexes, Sprague-Dawley, sc, 0.3 mg/kg
[6] = both sexes, Sprague-Dawley, sc, 1.5 mg/kg
[7] = both sexes, Sprague-Dawley, sc, 7.5 mg/kg

T1 sequence (P02768 25-609): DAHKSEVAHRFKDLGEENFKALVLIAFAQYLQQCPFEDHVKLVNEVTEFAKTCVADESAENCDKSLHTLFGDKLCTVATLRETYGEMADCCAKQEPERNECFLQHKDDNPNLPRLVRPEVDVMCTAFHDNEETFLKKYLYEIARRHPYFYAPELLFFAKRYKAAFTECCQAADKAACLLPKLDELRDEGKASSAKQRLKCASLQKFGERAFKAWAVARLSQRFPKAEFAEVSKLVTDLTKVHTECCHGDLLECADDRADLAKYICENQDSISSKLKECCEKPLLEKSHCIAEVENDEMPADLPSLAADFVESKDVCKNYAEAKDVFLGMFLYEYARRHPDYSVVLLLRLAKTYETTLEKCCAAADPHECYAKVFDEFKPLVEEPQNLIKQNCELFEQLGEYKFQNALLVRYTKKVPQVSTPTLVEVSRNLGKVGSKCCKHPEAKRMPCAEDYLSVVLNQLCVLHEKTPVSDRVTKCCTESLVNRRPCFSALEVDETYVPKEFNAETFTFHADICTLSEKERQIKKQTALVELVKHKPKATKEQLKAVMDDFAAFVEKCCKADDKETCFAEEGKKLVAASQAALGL

CC[C@H](C)[C@H](NC(=O)[C@H](CC(C)C)NC(=O)[C@H](Cc1c[nH]c2ccccc12)NC(=O)[C@H](CCC(N)=O)NC(=O)[C@@H](NC(=O)[C@H](Cc1ccccc1)NC(=O)[C@H](C)NC(=O)[C@H](CCCCN)NC(=O)[C@H](CCC(N)=O)NC(=O)[C@H](C)NC(=O)[C@@H](NC(=O)[C@H](CCCCN)NC(=O)[C@H](CC(=O)O)NC(=O)[C@H](CC(C)C)NC(=O)C(C)(C)NC(=O)[C@@H](NC(=O)[C@H](CO)NC(=O)[C@H](Cc1ccc(O)cc1)NC(=O)[C@H](CC(=O)O)NC(=O)[C@H](CO)NC(=O)[C@@H](NC(=O)[C@H](Cc1ccccc1)NC(=O)[C@@H](NC(=O)CNC(=O)[C@H](CCC(=O)O)NC(=O)C(C)(C)NC(=O)[C@@H](N)Cc1ccc(O)cc1)[C@@H](C)O)[C@@H](C)O)[C@@H](C)CC)[C@@H](C)CC)C(C)C)C(=O)N[C@@H](C)C(=O)NCC(=O)NCC(=O)N1CCC[C@H]1C(=O)N[C@@H](CO)C(=O)N[C@@H](CO)C(=O)NCC(=O)N[C@@H](C)C(=O)N1CCC[C@H]1C(=O)N1CCC[C@H]1C(=O)N1CCC[C@H]1C(=O)N[C@@H](CO)C(=O)N[C@@H](CCCCNC(=O)COCCOCCOCCNC(=O)COCCOCCOCCNC(=O)CC[C@H](NC(=O)CCCCCCCCCCCCCCCCCCC(=O)O)C(=O)O)C(N)=O [BGM0504]
Kd [1]: 73 nM | AUC(0-inf) (in vivo [2]; both sexes, iv, 0.2 mg/kg): 50 µg·h/mL | AUC(0-inf) (in vivo [2]; both sexes, sc, 0.3 mg/kg): 33.4 µg·h/mL | AUC(0-t) (in vivo [2]; both sexes, sc, 0.3 mg/kg): 33.2 µg·h/mL | AUC(0-inf) (in vivo [2]; both sexes, sc, 1.5 mg/kg): 154 µg·h/mL | AUC(0-t) (in vivo [2]; both sexes, sc, 1.5 mg/kg): 153 µg·h/mL | AUC(0-inf) (in vivo [2]; both sexes, sc, 7.5 mg/kg): 643 µg·h/mL | AUC(0-t) (in vivo [2]; both sexes, sc, 7.5 mg/kg): 637 µg·h/mL | C0 (in vivo [2]; [4]): 4650 ± 411 ng/mL | Vd (in vivo [2]; [4]): 0.0648 ± 0.0058 L/kg | clearance (in vivo [2]; [4]): 4.08 ± 0.618 mL/h/kg | half-life (in vivo [2]; [4]): 13.6 ± 2.3 h | Cmax (in vivo [2]; [5]): 814 ± 111 ng/mL | Tmax (in vivo [2]; [5]): 24 h | bioavailability (in vivo [2]; [5]): 44.5% | half-life (in vivo [2]; [5]): 14.5 ± 1.4 h | Cmax (in vivo [2]; [6]): 3830 ± 705 ng/mL | Tmax (in vivo [2]; [6]): 24 h | bioavailability (in vivo [2]; [6]): 41.1% | half-life (in vivo [2]; [6]): 13.4 ± 1.5 h | Cmax (in vivo [2]; [7]): 15100 ng/mL | Tmax (in vivo [2]; [7]): 20 ± 6.2 h | bioavailability (in vivo [2]; [7]): 34.3% | half-life (in vivo [2]; [7]): 14.7 ± 2.4 h | AUC0-24 (in vivo [2]; iv, 0.2 mg/kg): 38.8 µg·h/mL | AUC0-last (in vivo [2]; iv, 0.2 mg/kg): 49.8 µg·h/mL | AUC0–last (as headed in Table 1) (in vivo [2]; iv, 0.2 mg/kg): 38,800 ± 5150 ng h/mL | AUC0–∞ (as headed in Table 1) (in vivo [2]; iv, 0.2 mg/kg): 49,800 ± 7470 ng h/mL | AUC0-24 (in vivo [2]; sc, 0.3 mg/kg): 14.1 µg·h/mL | AUC0–last (as headed in Table 1) (in vivo [2]; sc, 0.3 mg/kg): 14,100 ± 2440 ng h/mL | AUC0–∞ (as headed in Table 1) (in vivo [2]; sc, 0.3 mg/kg): 33,200 ± 6190 ng h/mL | AUC0-24 (in vivo [2]; sc, 1.5 mg/kg): 63.9 µg·h/mL | AUC0–last (as headed in Table 1) (in vivo [2]; sc, 1.5 mg/kg): 63,900 ± 11,400 ng h/mL | AUC0–∞ (as headed in Table 1) (in vivo [2]; sc, 1.5 mg/kg): 153,000 ± 27,700 ng h/mL | AUC0-24 (in vivo [2]; sc, 7.5 mg/kg): 269 µg·h/mL | AUC0–last (as headed in Table 1) (in vivo [2]; sc, 7.5 mg/kg): 269,000 ± 43,000 ng h/mL | AUC0–∞ (as headed in Table 1) (in vivo [2]; sc, 7.5 mg/kg): 637,000 ± 88,700 ng h/mL | AUC(0-inf) (in vivo [3]; both sexes, iv, 0.1 mg/kg): 81.1 µg·h/mL | AUC(0-t) (in vivo [3]; both sexes, iv, 0.1 mg/kg): 80.4 µg·h/mL | C0 (in vivo [3]; both sexes, iv, 0.1 mg/kg): 2860 ± 261 ng/mL | Vd (in vivo [3]; both sexes, iv, 0.1 mg/kg): 0.0608 ± 0.005 L/kg | clearance (in vivo [3]; both sexes, iv, 0.1 mg/kg): 1.24 ± 0.132 mL/h/kg | half-life (in vivo [3]; both sexes, iv, 0.1 mg/kg): 37.9 ± 2.5 h | AUC(0-inf) (in vivo [3]; both sexes, sc, 0.2 mg/kg): 113 µg·h/mL | AUC(0-t) (in vivo [3]; both sexes, sc, 0.2 mg/kg): 113 µg·h/mL | Cmax (in vivo [3]; both sexes, sc, 0.2 mg/kg): 1440 ± 109 ng/mL | Tmax (in vivo [3]; both sexes, sc, 0.2 mg/kg): 16 ± 6.2 h | bioavailability (in vivo [3]; both sexes, sc, 0.2 mg/kg): 69.7% | half-life (in vivo [3]; both sexes, sc, 0.2 mg/kg): 38.7 ± 1.8 h | AUC(0-inf) (in vivo [3]; both sexes, sc, 1 mg/kg): 491 µg·h/mL | AUC(0-t) (in vivo [3]; both sexes, sc, 1 mg/kg): 488 µg·h/mL | Cmax (in vivo [3]; both sexes, sc, 1 mg/kg): 5970 ± 1090 ng/mL | Tmax (in vivo [3]; both sexes, sc, 1 mg/kg): 22 ± 14 h | bioavailability (in vivo [3]; both sexes, sc, 1 mg/kg): 60.5% | half-life (in vivo [3]; both sexes, sc, 1 mg/kg): 41.7 ± 2.9 h | AUC(0-inf) (in vivo [3]; both sexes, sc, 5 mg/kg): 2740 µg·h/mL | AUC(0-t) (in vivo [3]; both sexes, sc, 5 mg/kg): 2720 µg·h/mL | Cmax (in vivo [3]; both sexes, sc, 5 mg/kg): 33500 ng/mL | Tmax (in vivo [3]; both sexes, sc, 5 mg/kg): 20 ± 6.2 h | bioavailability (in vivo [3]; both sexes, sc, 5 mg/kg): 67.6% | half-life (in vivo [3]; both sexes, sc, 5 mg/kg): 43.4 ± 5.9 h | Tmax (in vivo [3]): 16 to 22 h | AUC0-24 (in vivo [3]; iv, 0.1 mg/kg): 34.6 µg·h/mL | AUC0–last (as headed in Table 1) (in vivo [3]; iv, 0.1 mg/kg): 34,600 ± 2470 ng h/mL | AUC0–∞ (as headed in Table 1) (in vivo [3]; iv, 0.1 mg/kg): 80,400 ± 7880 ng h/mL | AUC0-24 (in vivo [3]; sc, 0.2 mg/kg): 26.1 µg·h/mL | AUC0–last (as headed in Table 1) (in vivo [3]; sc, 0.2 mg/kg): 26,100 ± 1740 ng h/mL | AUC0–∞ (as headed in Table 1) (in vivo [3]; sc, 0.2 mg/kg): 113,000 ± 7940 ng h/mL | AUC0-24 (in vivo [3]; sc, 1 mg/kg): 109 µg·h/mL | AUC0–last (as headed in Table 1) (in vivo [3]; sc, 1 mg/kg): 109,000 ± 21,900 ng h/mL | AUC0–∞ (as headed in Table 1) (in vivo [3]; sc, 1 mg/kg): 488,000 ± 51,200 ng h/mL | AUC0-24 (in vivo [3]; sc, 5 mg/kg): 603 µg·h/mL | AUC0–last (as headed in Table 1) (in vivo [3]; sc, 5 mg/kg): 603,000 ± 94,200 ng h/mL | AUC0–∞ (as headed in Table 1) (in vivo [3]; sc, 5 mg/kg): 2,720,000 ± 246,000 ng h/mL
